Assays:
ssGPR55-K80A = assay: GPR55-internalisation assay, K80A mutant (FACS); format: cell-based, human; conditions: ssGPR55-K80A, HeLa; 10 µM soybean LPI, 15 min; three independent experiments
Description: (§1) The construct of haemagglutinin (HA)-tagged human GPR55 in pcDNA3 (HA-GPR55) was a gift from Prof. K. Mackie, Indiana University, Bloomington, IN, USA [39], while the construct ss-3 × HA-GPR55 in pcDNA3.1 (ssGPR55) with a triple HA tag at the N-terminus and an optimised signal sequence (ss, derived from amino acids 1–33 of the human growth hormone: […]) for efficient surface expression was from Prof. A. Irving, Dundee University, UK [40]. For both constructs, mutations were introduced by site-directed mutagenesis using QuickChange kits (Stratagene, La Jolla, CA, USA), according to the manufacturer instructions. The primers for the K80A mutation were 5′-[…]-3′ and 5′-[…]-3′ (Tm, 70.6 °C), and for Q87A were 5′-[…]-3′ and 5′-[…]-3′ (Tm, 73.1 °C).
(§2) HeLa cells were plated at 1.5 × 10^5 cells/well in six-well plates in their growth medium without antibiotics. […]
(§3) For the GPR55-internalisation assay, after stimulation, the HeLa cells were washed twice with cold HBSS^++, stained while adhered with the monoclonal anti-HA antibody (1:1000) in PBS plus 3% BSA for 1 h on ice, washed three times with cold PBS, incubated with the Alexa488-tagged anti-mouse antibody (1:800) in PBS plus 3% BSA for 45 min on ice. […] The collected cells were centrifuged at 300×g, suspended in PBS plus 3% BSA, and analysed by FACS.

ssGPR55-Q87A = assay: GPR55-internalisation assay, Q87A mutant (FACS); format: cell-based, human; conditions: HeLa, 10 µM soybean LPI, 15 min, three independent experiments
Description: as §1, §2, §3

## lysophosphatidylinositol [LPI]
ssGPR55-K80A
  change of cell-surface level of receptor: not changed
ssGPR55-Q87A
  reduction of cell-surface level of receptor: 15%
